Results as given in BindingDB's records for doi:10.1021/cb900195c (University of Pittsburgh, 2009).

Legend:
[1] = target: Protein Nef/Tyrosine-protein kinase HCK (Homo sapiens, UniProt P03406+P08631); test: In Vitro Kinase Assay; details: 25 °C
From the text: (§1) In vitro kinase activity of Nef-Hck complex and Hck alone using Z'-lyte kinase assay system and Tyr2 peptide substrate from Invitrogen.

[2] = target: Tyrosine-protein kinase HCK (Homo sapiens, UniProt P08631); test: In Vitro Kinase Assay; details: 25 °C
Tyrosine-protein kinase HCK, sequence (P08631 whole entry): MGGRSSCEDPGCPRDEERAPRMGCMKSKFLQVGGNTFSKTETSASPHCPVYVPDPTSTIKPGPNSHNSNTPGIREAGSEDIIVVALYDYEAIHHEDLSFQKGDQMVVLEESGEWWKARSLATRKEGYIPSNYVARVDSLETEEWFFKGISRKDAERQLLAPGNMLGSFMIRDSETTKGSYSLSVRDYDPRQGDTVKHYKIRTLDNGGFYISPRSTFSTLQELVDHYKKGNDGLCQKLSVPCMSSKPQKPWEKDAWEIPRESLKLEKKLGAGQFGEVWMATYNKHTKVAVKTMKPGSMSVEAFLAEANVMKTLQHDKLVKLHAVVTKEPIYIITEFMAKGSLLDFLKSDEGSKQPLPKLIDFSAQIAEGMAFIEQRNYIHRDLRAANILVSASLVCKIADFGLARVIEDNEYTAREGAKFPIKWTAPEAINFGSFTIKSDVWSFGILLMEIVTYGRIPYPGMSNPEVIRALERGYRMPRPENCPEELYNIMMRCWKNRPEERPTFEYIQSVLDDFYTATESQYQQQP
From the text: as §1

Protein Nef/Tyrosine-protein kinase HCK, sequence (P08631 whole entry, other chains not shown): as the sequence (P08631 whole entry) above

| SMILES | IC50 [1] [µM] | IC50 [2] [µM] |
| --- | --- | --- |
| OCCCNc1ncnc2oc(-c3ccccc3)c(-c3ccccc3)c12 [DFP-4AP] | 5.1 | 12.8 |
| Nc1ncnc2oc(-c3ccccc3)c(-c3ccccc3)c12 [DFP-4A] | > 30 | > 30 |
| OCCCCNc1ncnc2oc(-c3ccccc3)c(-c3ccccc3)c12 [DFP-4AB] | 16 | > 30 |
| c1ccc(-c2oc3ncnc(NCCCc4ccco4)c3c2-c2ccccc2)cc1 [DFP-4APF] | 2 | > 30 |
